Experimental data published in patent publication US6936585B2, “Corticotropin releasing factor 2 receptor agonists” (priority 2002, dated 2005).
Read-outs that look alike come from different tables or passages of the source. Peptide text beside a SMILES is read from it.

Key:
CRF2R = molecular target: T1, CRF2R (Homo sapiens, UniProt Q13324); assay: CRF2R agonist activation (EC50 / Emax), called comparative CRF binding; type: cell-based; conditions: for Emax: read-out: CRF2R Emax
T1 sequence (Q13324 1-411): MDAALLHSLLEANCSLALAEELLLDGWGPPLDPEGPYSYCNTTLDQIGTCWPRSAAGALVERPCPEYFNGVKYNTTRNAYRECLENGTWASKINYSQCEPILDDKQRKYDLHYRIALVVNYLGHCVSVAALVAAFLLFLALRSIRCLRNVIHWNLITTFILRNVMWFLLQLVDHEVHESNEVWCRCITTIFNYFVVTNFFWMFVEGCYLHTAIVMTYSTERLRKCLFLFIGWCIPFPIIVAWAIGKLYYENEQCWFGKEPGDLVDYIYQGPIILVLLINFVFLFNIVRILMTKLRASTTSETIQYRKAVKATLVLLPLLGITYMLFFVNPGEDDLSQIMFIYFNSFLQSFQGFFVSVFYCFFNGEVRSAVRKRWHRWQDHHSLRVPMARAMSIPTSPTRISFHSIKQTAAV
Procedure, shortened: (§1)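 Agonism at each human CRF receptor subtype is inferred from increased cAMP relative to vehicle, using cells expressing that subtype and either lysate cAMP measurement or a cAMP response element reporter.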

CRF1R = molecular target: T2, CRF1R (Homo sapiens, UniProt P34998); assay: CRF1R agonist activation (EC50 / Emax), called comparative CRF binding; type: cell-based; conditions: for Emax: read-out: CRF1R Emax
T2 sequence (P34998 24-415): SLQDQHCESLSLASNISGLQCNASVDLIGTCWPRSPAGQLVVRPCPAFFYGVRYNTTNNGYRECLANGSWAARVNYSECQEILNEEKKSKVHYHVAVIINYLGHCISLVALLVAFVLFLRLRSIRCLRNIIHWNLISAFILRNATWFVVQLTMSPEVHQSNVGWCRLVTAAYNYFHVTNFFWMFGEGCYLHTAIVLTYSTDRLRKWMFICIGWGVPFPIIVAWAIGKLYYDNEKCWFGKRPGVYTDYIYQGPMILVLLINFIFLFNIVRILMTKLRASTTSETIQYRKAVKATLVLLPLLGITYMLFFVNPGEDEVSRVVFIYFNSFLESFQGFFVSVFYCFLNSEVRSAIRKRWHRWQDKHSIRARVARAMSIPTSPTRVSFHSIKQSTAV
Procedure, shortened: as §1

| Structure (SMILES) | EC50 (CRF2R) | Emax (CRF2R) | EC50 (CRF1R; CRF1R EC50) | Emax (CRF1R) | EC50 (CRF2R; read-out: CRF2R EC50) | EC50 (CRF1R; read-out: CRF1R EC50) |
| --- | --- | --- | --- | --- | --- | --- |
| CC[C@H](C)[C@H](N)C(=O)N[C@H](C(=O)N[C@@H](CC(C)C)C(=O)N[C@@H](CO)C(=O)N[C@@H](CC(C)C)C(=O)N[C@@H](CC(=O)O)C(=O)N[C@H](C(=O)N1CCC[C@H]1C(=O)N[C@H](C(=O)NCC(=O)N[C@@H](CC(C)C)C(=O)N[C@@H](CC(C)C)C(=O)N[C@@H](CCC(N)=O)C(=O)N[C@@H](CCCCN)C(=O)N[C@@H](CCSC)C(=O)N[C@H](C(=O)N[C@@H](CCC(=O)O)C(=O)N[C@H](C(=O)N[C@@H](CCC(=O)O)C(=O)N[C@@H](CCCCN)C(=O)N[C@@H](CCC(N)=O)C(=O)N[C@@H](CCC(=O)O)C(=O)N[C@@H](CCCCN)C(=O)N[C@@H](CCC(=O)O)C(=O)N[C@@H](CCCCN)C(=O)N[C@@H](CCC(N)=O)C(=O)N[C@@H](CCC(N)=O)C(=O)N[C@@H](C)C(=O)N[C@H](C(=O)N[C@H](C(=O)N[C@@H](CC(N)=O)C(=O)N[C@@H](C)C(=O)N[C@@H](CCCNC(=N)N)C(=O)N[C@H](C(=O)N[C@@H](CC(C)C)C(=O)N[C@@H](C)C(=O)N[C@@H](CCCNC(=N)N)C(=O)N[C@H](C(N)=O)C(C)C)[C@@H](C)CC)[C@@H](C)O)[C@@H](C)O)[C@@H](C)CC)[C@@H](C)CC)[C@@H](C)CC)C(C)C)C(C)C [compound 322] (H-IVLSLDVPIGLLQKMIEIEKQEKEKQQATTNARILARV-NH2; N-terminus assumed) | 23.1 nM | 96.5% | ≥ 1000 nM | 10.7% |  |  |
| CC[C@H](C)[C@H](NC(=O)[C@H](CCC(=O)O)NC(=O)[C@H](C)NC(=O)[C@H](CC(N)=O)NC(=O)[C@H](CCC(N)=O)NC(=O)[C@H](CCC(=O)O)NC(=O)[C@H](C)NC(=O)[C@H](CCCNC(=N)N)NC(=O)[C@H](CCC(=O)O)NC(=O)[C@H](CCCNC(=N)N)NC(=O)[C@H](CCC(N)=O)NC(=O)[C@H](CO)NC(=O)[C@H](CCC(N)=O)NC(=O)[C@@H](NC(=O)[C@H](CCCCN)NC(=O)[C@H](CCC(=O)O)NC(=O)[C@H](CC(C)C)NC(=O)[C@H](CCC(=O)O)NC(=O)[C@H](CC(C)C)NC(=O)[C@H](CC(C)C)NC(=O)[C@@H](NC(=O)[C@H](CCCNC(=N)N)NC(=O)[C@H](CC(C)C)NC(=O)[C@H](CC(C)C)NC(=O)[C@H](CC(C)C)NC(=O)[C@H](CC(C)C)NC(=O)[C@@H]1CCCN1C(=O)[C@H](CC(C)C)NC(=O)[C@H](CC(=O)O)NC(=O)[C@@H](NC(=O)[C@H](CO)NC(=O)[C@H](CC(C)C)NC(=O)[C@H](CO)NC(=O)[C@@H]1CCCN1C(=O)[C@H](CC(N)=O)NC(=O)[C@@H](N)CC(=O)O)[C@@H](C)CC)[C@@H](C)O)[C@@H](C)O)C(=O)N[C@@H](Cc1ccccc1)C(=O)N[C@@H](C)C(=O)N[C@@H](CCC(=O)O)C(=O)N[C@H](C(N)=O)C(C)C [compound 323] (H-DNPSLSIDLPLLLLRTLLELEKTQSQRERAEQNAEIFAEV-NH2; N-terminus assumed) |  | 100% |  | 36.9% |  |  |
| CC[C@H](C)[C@H](NC(=O)[C@H](CCC(N)=O)NC(=O)[C@H](C)NC(=O)[C@H](CC(N)=O)NC(=O)[C@H](CCC(N)=O)NC(=O)[C@H](CCC(=O)O)NC(=O)[C@H](C)NC(=O)[C@H](CCCNC(=N)N)NC(=O)[C@H](CCC(=O)O)NC(=O)[C@H](CCCNC(=N)N)NC(=O)[C@H](CCC(N)=O)NC(=O)[C@H](CO)NC(=O)[C@H](CCC(N)=O)NC(=O)[C@@H](NC(=O)[C@H](CCCCN)NC(=O)[C@H](CCC(=O)O)NC(=O)[C@H](CC(C)C)NC(=O)[C@H](CCC(=O)O)NC(=O)[C@H](CC(C)C)NC(=O)[C@H](CC(C)C)NC(=O)[C@@H](NC(=O)[C@H](CCCNC(=N)N)NC(=O)[C@H](CC(C)C)NC(=O)[C@H](CC(C)C)NC(=O)[C@H](CC(C)C)NC(=O)[C@H](CC(C)C)NC(=O)[C@@H]1CCCN1C(=O)[C@H](CC(C)C)NC(=O)[C@H](CC(=O)O)NC(=O)[C@@H](NC(=O)[C@H](CO)NC(=O)[C@H](CC(C)C)NC(=O)[C@H](CO)NC(=O)[C@@H]1CCCN1C(=O)[C@H](CC(N)=O)NC(=O)[C@@H](N)CC(=O)O)[C@@H](C)CC)[C@@H](C)O)[C@@H](C)O)C(=O)N[C@@H](Cc1ccccc1)C(=O)N[C@@H](C)C(=O)N[C@@H](Cc1c[nH]cn1)C(=O)N[C@H](C(N)=O)C(C)C [compound 324] (H-DNPSLSIDLPLLLLRTLLELEKTQSQRERAEQNAQIFAHV-NH2; N-terminus assumed) |  | 100% |  | 46.6% | 17.2 nM | ≥ 1000 nM |
| CC[C@H](C)[C@H](NC(=O)[C@H](CC(N)=O)NC(=O)[C@H](C)NC(=O)[C@H](CC(N)=O)NC(=O)[C@H](CCC(N)=O)NC(=O)[C@H](CCC(=O)O)NC(=O)[C@H](C)NC(=O)[C@H](CCCNC(=N)N)NC(=O)[C@H](CCC(=O)O)NC(=O)[C@H](CCCNC(=N)N)NC(=O)[C@H](CCC(N)=O)NC(=O)[C@H](CO)NC(=O)[C@H](CCC(N)=O)NC(=O)[C@@H](NC(=O)[C@H](CCCCN)NC(=O)[C@H](CCC(=O)O)NC(=O)[C@H](CC(C)C)NC(=O)[C@H](CCC(=O)O)NC(=O)[C@H](CC(C)C)NC(=O)[C@H](CC(C)C)NC(=O)[C@@H](NC(=O)[C@H](CCCNC(=N)N)NC(=O)[C@H](CC(C)C)NC(=O)[C@H](CC(C)C)NC(=O)[C@H](CC(C)C)NC(=O)[C@H](CC(C)C)NC(=O)[C@@H]1CCCN1C(=O)[C@H](CC(C)C)NC(=O)[C@H](CC(=O)O)NC(=O)[C@@H](NC(=O)[C@H](CO)NC(=O)[C@H](CC(C)C)NC(=O)[C@H](CO)NC(=O)[C@@H]1CCCN1C(=O)[C@H](CC(N)=O)NC(=O)[C@@H](N)CC(=O)O)[C@@H](C)CC)[C@@H](C)O)[C@@H](C)O)C(=O)N[C@@H](Cc1ccccc1)C(=O)N[C@@H](C)C(=O)N[C@@H](CC(N)=O)C(=O)N[C@H](C(N)=O)C(C)C [compound 326] (H-DNPSLSIDLPLLLLRTLLELEKTQSQRERAEQNANIFANV-NH2; N-terminus assumed) |  | 100% |  | 30.1% | 33.7 nM | ≥ 1000 nM |
| CC[C@H](C)[C@H](NC(=O)[C@H](CCC(N)=O)NC(=O)[C@H](C)NC(=O)[C@H](CC(N)=O)NC(=O)[C@H](CCC(N)=O)NC(=O)[C@H](CCC(=O)O)NC(=O)[C@H](C)NC(=O)[C@H](CCCNC(=N)N)NC(=O)[C@H](CCC(=O)O)NC(=O)[C@H](CCCNC(=N)N)NC(=O)[C@H](CCC(N)=O)NC(=O)[C@H](CO)NC(=O)[C@H](CCC(N)=O)NC(=O)[C@@H](NC(=O)[C@H](CCCCN)NC(=O)[C@H](CCC(=O)O)NC(=O)[C@H](CC(C)C)NC(=O)[C@H](CCC(=O)O)NC(=O)[C@H](CC(C)C)NC(=O)[C@H](CC(C)C)NC(=O)[C@@H](NC(=O)[C@H](CCCNC(=N)N)NC(=O)[C@H](CC(C)C)NC(=O)[C@H](CC(C)C)NC(=O)[C@H](CC(C)C)NC(=O)[C@H](CC(C)C)NC(=O)[C@@H]1CCCN1C(=O)[C@H](CC(C)C)NC(=O)[C@H](CC(=O)O)NC(=O)[C@@H](NC(=O)[C@H](CO)NC(=O)[C@H](CC(C)C)NC(=O)[C@H](CO)NC(=O)[C@@H]1CCCN1C(=O)[C@H](CC(N)=O)NC(=O)[C@@H](N)CC(=O)O)[C@@H](C)CC)[C@@H](C)O)[C@@H](C)O)C(=O)N[C@@H](Cc1ccccc1)C(=O)N[C@@H](C)C(=O)N[C@@H](CCC(N)=O)C(=O)N[C@H](C(N)=O)C(C)C [compound 327] (H-DNPSLSIDLPLLLLRTLLELEKTQSQRERAEQNAQIFAQV-NH2; N-terminus assumed) |  | 100% |  | 36.5% |  |  |
| CC[C@H](C)[C@H](NC(=O)[C@H](Cc1c[nH]cn1)NC(=O)[C@H](C)NC(=O)[C@H](CC(N)=O)NC(=O)[C@H](CCC(N)=O)NC(=O)[C@H](CCC(=O)O)NC(=O)[C@H](C)NC(=O)[C@H](CCCNC(=N)N)NC(=O)[C@H](CCC(=O)O)NC(=O)[C@H](CCCNC(=N)N)NC(=O)[C@H](CCC(N)=O)NC(=O)[C@H](CO)NC(=O)[C@H](CCC(N)=O)NC(=O)[C@@H](NC(=O)[C@H](CCCCN)NC(=O)[C@H](CCC(=O)O)NC(=O)[C@H](CC(C)C)NC(=O)[C@H](CCC(=O)O)NC(=O)[C@H](CC(C)C)NC(=O)[C@H](CC(C)C)NC(=O)[C@@H](NC(=O)[C@H](CCCNC(=N)N)NC(=O)[C@H](CC(C)C)NC(=O)[C@H](CC(C)C)NC(=O)[C@H](CC(C)C)NC(=O)[C@H](CC(C)C)NC(=O)[C@@H]1CCCN1C(=O)[C@H](CC(C)C)NC(=O)[C@H](CC(=O)O)NC(=O)[C@@H](NC(=O)[C@H](CO)NC(=O)[C@H](CC(C)C)NC(=O)[C@H](CO)NC(=O)[C@@H]1CCCN1C(=O)[C@H](CC(N)=O)NC(=O)[C@@H](N)CC(=O)O)[C@@H](C)CC)[C@@H](C)O)[C@@H](C)O)C(=O)N[C@@H](Cc1ccccc1)C(=O)N[C@@H](C)C(=O)N[C@@H](Cc1c[nH]cn1)C(=O)N[C@H](C(N)=O)C(C)C [compound 328] (H-DNPSLSIDLPLLLLRTLLELEKTQSQRERAEQNAHIFAHV-NH2; N-terminus assumed) |  | 95.7% |  | 30.7% | 11.7 nM | ≥ 1000 nM |
